What was measured:
Cbl-b = Cbl-b (Homo sapiens (Human), UniProt Q13191); assay: Cbl-b LCK Ub TR-FRET assay (Cbl-b Lck HTRF); format: biochemical
Summary of the method: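 TR-FRET (340 nm excitation, 615/665 nm emission) read after adding HA-ubiquitin–UBE2D2 thioester, anti-HA-D2 and streptavidin-Eu. Beforehand, compounds incubated 60 min with biotinylated Cbl-b, then 90 min with His-LCK and ATP (1 mM in 2× mix); IC50 from 10 concentrations, DMSO high and no-LCK low controls.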

c-Cbl = c-Cbl (Homo sapiens (Human), UniProt P22681); assay: C-Cbl LCK Ub TR-FRET assay (c-cbl Lck HTRF); format: biochemical; details: for (fold-selectivity): C-cbl Lck HTRF IC50 relative to Cbl-b Lck HTRF IC50
Summary of the method: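 Signal is read once the detection mix has stood 20 min at ambient temperature. Curves are anchored by DMSO as maximum and by omission of LCK as minimum.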

Chain of Cbl-b (Q13191 40-426): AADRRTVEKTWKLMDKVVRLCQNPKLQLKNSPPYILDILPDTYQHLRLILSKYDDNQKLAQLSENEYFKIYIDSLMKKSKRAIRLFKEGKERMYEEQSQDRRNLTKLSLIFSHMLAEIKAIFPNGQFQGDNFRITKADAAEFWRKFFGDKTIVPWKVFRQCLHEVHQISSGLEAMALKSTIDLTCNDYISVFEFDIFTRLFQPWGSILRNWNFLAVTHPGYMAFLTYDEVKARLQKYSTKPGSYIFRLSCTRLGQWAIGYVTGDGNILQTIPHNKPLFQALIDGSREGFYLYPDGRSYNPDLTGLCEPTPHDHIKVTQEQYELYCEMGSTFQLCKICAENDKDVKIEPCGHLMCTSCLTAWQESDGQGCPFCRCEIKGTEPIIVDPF
Chain of c-Cbl (P22681 47-435): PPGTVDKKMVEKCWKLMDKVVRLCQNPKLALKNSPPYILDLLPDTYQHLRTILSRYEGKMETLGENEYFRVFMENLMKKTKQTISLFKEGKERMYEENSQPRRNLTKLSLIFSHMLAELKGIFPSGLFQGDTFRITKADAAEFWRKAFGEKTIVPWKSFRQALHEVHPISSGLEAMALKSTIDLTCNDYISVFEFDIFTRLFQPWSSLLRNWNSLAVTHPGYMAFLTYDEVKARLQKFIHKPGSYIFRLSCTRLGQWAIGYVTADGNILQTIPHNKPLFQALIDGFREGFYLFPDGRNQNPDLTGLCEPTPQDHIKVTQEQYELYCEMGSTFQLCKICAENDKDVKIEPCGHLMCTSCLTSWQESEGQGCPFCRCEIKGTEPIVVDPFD

| Compound | IC50 (Cbl-b) | IC50 (c-Cbl) | (fold-selectivity) (c-Cbl) |
| --- | --- | --- | --- |
| CC(C)[C@H]1CN(C)CCN1Cc1cc2c(c(C(F)(F)F)c1)CN(c1cccc(C3([C@H](F)c4nncn4C(F)F)COC3)c1)C2=O [Compound 268, 2-(3-(3-((S)-(4-(difluoromethyl)-4H-1,2,4-triazol-3-yl)fluoromethyl)oxetan-3-yl)phenyl)-6-(((S)-2-isopropyl-4-methylpiperazin-1-yl)methyl)-4-(trifluoromethyl)isoindolin-1-one] | 16 nM | 11 nM | (0.68x) |
| CC(C)[C@H]1CN(C)CCN1Cc1cc2c(c(C(F)(F)F)c1)CN(c1cccc(C3([C@@H](F)c4nc(F)cn4C)COC3)c1)C2=O [Compound 269, 2-(3-(3-((R)-fluoro(4-fluoro-1-methyl-1H-imidazol-2-yl)methyl)oxetan-3-yl)phenyl)-6-(((S)-2-isopropyl-4-methylpiperazin-1-yl)methyl)-4-(trifluoromethyl)isoindolin-1-one] | 210 nM | 470 nM | (2.3x) |
| CC(C)[C@H]1CN(C)CCN1Cc1cc2c(c(C(F)(F)F)c1)CN(c1cccc(C3([C@H](F)c4nc(F)cn4C)COC3)c1)C2=O [Compound 270, 2-(3-(3-((S)-fluoro(4-fluoro-1-methyl-1H-imidazol-2-yl)methyl)oxetan-3-yl)phenyl)-6-(((S)-2-isopropyl-4-methylpiperazin-1-yl)methyl)-4-(trifluoromethyl)isoindolin-1-one] | 130 nM | 350 nM | (2.6x) |
| CCn1cnnc1[C@@H](F)C1(c2cccc(N3Cc4c(cccc4C(F)(F)F)C3=O)c2)COC1 [Compound 271, (S)-2-(3-(3-((4-ethyl-4H-1,2,4-triazol-3-yl)fluoromethyl)oxetan-3-yl)phenyl)-4-(trifluoromethyl)isoindolin-1-one] | 1600 nM | 1900 nM | (1.2x) |
| CCn1cnnc1[C@H](F)C1(c2cccc(N3Cc4c(cccc4C(F)(F)F)C3=O)c2)COC1 [Compound 272, (R)-2-(3-(3-((4-ethyl-4H-1,2,4-triazol-3-yl)fluoromethyl)oxetan-3-yl)phenyl)-4-(trifluoromethyl)isoindolin-1-one] | 8200 nM | 11000 nM | (1.3x) |
| CC[C@@H]1CCC[C@H](c2cc3c(c(C(F)(F)F)c2)CN(c2cccc(C4(Cc5nncn5C)CC(F)(F)C4)c2)C3=O)N1 [Compound 274, 2-(3-(3,3-difluoro-1-((4-methyl-4H-1,2,4-triazol-3-yl)methyl)cyclobutyl)phenyl)-6-((2R,6R)-6-ethylpiperidin-2-yl)-4-(trifluoromethyl)isoindolin-1-one] | 140 nM | 220 nM | (1.6x) |
| C=CCNc1cc(C2(Cc3nncn3C)CCC2)cc(N2Cc3c(cc(CN4CCN(C)C[C@@H]4C(C)C)cc3C(F)(F)F)C2=O)n1 [Compound 275, (S)-2-(6-(allylamino)-4-(1-((4-methyl-4H-1,2,4-triazol-3-yl)methyl)cyclobutyl)pyridin-2-yl)-6-((2-isopropyl-4-methylpiperazin-1-yl)methyl)-4-(trifluoromethyl)isoindolin-1-one] | 7 nM | 7 nM | (1.0x) |
| CC(C)[C@H]1CN(C)CCN1Cc1cc2c(c(C(F)(F)F)c1)CN(c1cc(C3([C@@H](F)c4nncn4C)CCC3)cc(NCC3CC3)n1)C2=O [Compound 278, 2-(6-((cyclopropylmethyl)amino)-4-(1-((R)-fluoro(4-methy-4H-1,2,4-triazol-3-yl)methyl)cyclobutyl)pyridin-2-yl)-6-(((S)-2-isopropyl-4-methylpiperazin-1-yl)methyl)-4-(trifluoromethyl)isoindolin-1-one] | 12 nM | 15 nM | (1.2x) |
| CC(C)[C@H]1CN(C)CCN1Cc1cc2c(c(C(F)(F)F)c1)CN(c1cc(C3([C@H](F)c4nncn4C)CCC3)cc(NCC3CC3)n1)C2=O [Compound 279, 2-(6-((cyclopropylmethyl)amino)-4-(1-((S)-fluoro(4-methyl-4H-1,2,4-triazol-3-yl)methyl)cyclobutyl)pyridin-2-yl)-6-(((S)-2-isopropyl-4-methylpiperazin-1-yl)methyl)-4-(trifluoromethyl)isoindolin-1-one] | 7.9 nM | 10 nM | (1.4x) |
| CC(C)[C@H]1CN(C)CCN1Cc1cc2c(c(C(F)(F)F)c1)CN(c1cc(C3(Cc4nncn4C)CC(F)(F)C3)cc(N(C)C)n1)C2=O [Compound 280, (S)-2-(4-(3,3-difluoro-1-((4-methyl-4H-1,2,4-triazol-3-yl)methyl)cyclobutyl)-6-(dimethylamino)pyridin-2-yl)-6-((2-isopropyl-4-methylpiperazin-1-yl)methyl)-4-(trifluoromethyl)isoindolin-1-one] | 12 nM | 11 nM | (0.96x) |
| CC(C)[C@H]1CN(C)CCN1Cc1cc(Cl)c2c(c1)C(=O)N(c1cccc(C3(Cc4nncn4C)CC(F)(F)C3)c1)C2 [Compound 281, (S)-4-chloro-2-(3-(3,3-difluoro-1-((4-methyl-4H-1,2,4-triazol-3-yl)methyl)cyclobutyl)phenyl)-6-((2-isopropyl-4-methylpiperazin-1-yl)methyl)isoindolin-1-one] | 16 nM | 11 nM | (0.68x) |
| Cn1cnnc1CC1(c2cccc(N3Cc4c(cc(CNC(C)(C)C)cc4C(F)(F)F)C3=O)c2)CC(F)(F)C1 [Compound 283, 6-((tert-butylamino)methyl)-2-(3-(3,3-difluoro-1-((4-methyl-4H-1,2,4-triazol-3-yl)methyl)cyclobutyl)phenyl)-4-(trifluoromethyl)isoindolin-1-one] | 53 nM | 57 nM | (1.1x) |
| Cn1cnnc1C(F)(F)C1(c2cccc(N3Cc4c(cc(CNC5(C)CCC5)cc4C(F)(F)F)C3=O)c2)COC1 [Compound 287, 2-(3-(3-(difluoro(4-methyl-4H-1,2,4-triazol-3-yl)methyl)oxetan-3-yl)phenyl)-6-(((1-methylcyclobutyl)amino)methyl)-4-(trifluoromethyl)isoindolin-1-one] | 32 nM | 43 nM | (1.4x) |

More lines, now with the values ahead:

| IC50 (Cbl-b) | IC50 (c-Cbl) | (fold-selectivity) (c-Cbl) | Compound |
| --- | --- | --- | --- |
| 230 nM | 870 nM | (3.8x) | CNCc1cc2c(c(C(F)(F)F)c1)CN(c1cc(C3(Cc4nncn4C)COC3)cc(NC3CCCC3)n1)C2=O [Compound 277, 2-(6-(cyclopentylamino)-4-(3-((4-methyl-4H-1,2,4-triazol-3-yl)methyl)oxetan-3-yl)pyridin-2-yl)-6-((methylamino)methyl)-4-(trifluoromethyl)isoindolin-1-one] |
| 12 nM | 7.4 nM | (0.59x) | Cn1cnnc1CC1(c2cc(C3CC3)nc(N3Cc4c(cc(CNC5(C)CCC5)cc4C(F)(F)F)C3=O)c2)CCC1 [Compound 284, 2-(6-cyclopropyl-4-(1-((4-methyl-4H-1,2,4-triazol-3-yl)methyl)cyclobutyl)pyridin-2-yl)-6-(((1-methylcyclobutyl)amino)methyl)-4-(trifluoromethyl)isoindolin-1-one] |
| 8 nM | 5.3 nM | (0.71x) | CCOc1cc(C2(Cc3nncn3C)CCC2)cc(N2Cc3c(cc(CNC4(C)CCC4)cc3C(F)(F)F)C2=O)n1 [Compound 285, 2-(6-ethoxy-4-(1-((4-methyl-4H-1,2,4-triazol-3-yl)methyl)cyclobutyl)pyridin-2-yl)-6-(((1-methylcyclobutyl)amino)methyl)-4-(trifluoromethyl)isoindolin-1-one] |
| 6.8 nM | 4.9 nM | (0.73x) | CCSc1cc(C2(Cc3nncn3C)CCC2)cc(N2Cc3c(cc(CNC4(C)CCC4)cc3C(F)(F)F)C2=O)n1 [Compound 286, 2-(6-(ethylthio)-4-(1-((4-methyl-4H-1,2,4-triazol-3-yl)methyl)cyclobutyl)pyridin-2-yl)-6-(((1-methylcyclobutyl)amino)methyl)-4-(trifluoromethyl)isoindolin-1-one] |
| 10 nM | 5.4 nM | (0.54x) | CCNc1cc(C2(Cc3nncn3C)COC2)cc(N2Cc3c(cc(CNC4(C)CCC4)cc3C(F)(F)F)C2=O)n1 [Compound 290, 2-(6-(ethylamino)-4-(3-((4-methyl-4H-1,2,4-triazol-3-yl)methyl)oxetan-3-yl)pyridin-2-yl)-6-(((1-methylcyclobutyl)amino)methyl)-4-(trifluoromethyl)isoindolin-1-one] |
| 12 nM | 8.2 nM | (0.69x) | CCNc1cc(C2(Cc3nncn3C)COC2)cc(N2Cc3c(cc(CN4CCN(C)C[C@@H]4C(C)C)cc3C(F)(F)F)C2=O)n1 [Compound 291, (S)-2-(6-(ethylamino)-4-(3-((4-methyl-4H-1,2,4-triazol-3-yl)methyl)oxetan-3-yl)pyridin-2-yl)-6-((2-isopropyl-4-methylpiperazin-1-yl)methyl)-4-(trifluoromethyl)isoindolin-1-one] |
| 3400 nM | 5100 nM | (1.5x) | Cn1cnnc1CC1(c2cc(CC3CCCC3)nc(N3Cc4c(cccc4C(F)(F)F)C3=O)c2)COC1 [Compound 292, 2-(6-(cyclopentylmethyl)-4-(3-((4-methyl-4H-1,2,4-triazol-3-yl)methyl)oxetan-3-yl)pyridin-2-yl)-4-(trifluoromethyl)isoindolin-1-one] |
